# In the C3SDB collision cross section collection:
# Assays:
# [1] = instrument: DT, stepped-field
# [2] = instrument: TW, calibrated with polyalanine
# [3] = instrument: DT, stepped-field; remark: listed apart in the source
# [4] = instrument: DT, single field, calibrated with Agilent tune mix (Agilent)
# [5] = instrument: TW, calibrated with polyalanine; remark: listed apart in the source
compound,measurement,setting,value
NC(CCS)C(=O)O (racemic) [DL-Homocysteine],collision cross section (N2),[1]; [M+H]+,130.78 Å²
COc1cc2c(c3oc(=O)c4c(c13)CCOC4=O)[C@@H]1CCO[C@@H]1O2 [Aflatoxin G2],collision cross section (N2),[2]; [M+H]+,166 Å²
same,collision cross section (N2),[2]; [M+K]+,181 Å²
same,collision cross section (N2),[2]; [M+Na]+,176.4 Å²
CN1CC(=O)N=C1N [Creatinine],collision cross section (N2),[3]; [M+H]+,123.93 Å²
same,collision cross section (N2),[3]; [M+Na]+,133.41 Å²
same,collision cross section (N2),[1]; [M+H]+,123.87 Å²
same,collision cross section (N2),[1]; [M+Na]+,132.99 Å²
same,collision cross section (N2),[1]; [M-H]-,120.7 Å²
same,collision cross section (N2),[4]; [M+H]+,123.4 Å²
same,collision cross section (N2),[4]; [M-H]-,116.68 Å²
CC(=O)OC[C@]12CCC(C)=C[C@H]1O[C@@H]1[C@H](O)[C@@H](OC(C)=O)[C@@]2(C)[C@@]12CO2 [Diacetoxyscirpenol],collision cross section (N2),[2]; [M+NH4]+,192 Å²
CCC(C)[C@H](NC(=O)[C@H](CC(C)C)NC(=O)[C@H](CC(=O)O)NC(=O)[C@@H](N)CCC(=O)O)C(=O)N[C@@H](C)C(=O)N[C@@H](Cc1ccc(O)cc1)C(=O)N[C@@H](CC(C)C)C(=O)N[C@@H](CCCCN)C(=O)O (stereo not given in full) [EDLIAYLK],collision cross section (N2),[1]; [M+2H]2+,340.98 Å²
same,collision cross section (N2),[1]; [M+H]+,307.47 Å²
CC[C@H](C)[C@H]1C(=O)O[C@H](C(C)C)C(=O)N(C)[C@@H](C(C)C)C(=O)O[C@H](C(C)C)C(=O)N(C)[C@@H](C(C)C)C(=O)O[C@H](C(C)C)C(=O)N1C [Enniatin B1],collision cross section (N2),[2]; [M+H]+,246.4 Å²
same,collision cross section (N2),[2]; [M+K]+,254.7 Å²
same,collision cross section (N2),[2]; [M+NH4]+,253 Å²
same,collision cross section (N2),[2]; [M+Na]+,253.4 Å²
CNC[C@H](O)c1ccc(O)c(O)c1 [Epinephrine],collision cross section (N2),[5]; [M+H]+,133 Å²
same,collision cross section (N2),[4]; [M+H-H2O]+,138.3 Å²
same,collision cross section (N2),[4]; [M-H]-,137.87 Å²
CC(=O)O[C@@H]1[C@@H](O)[C@H]2O[C@@H]3C=C(C)C(=O)[C@@H](O)[C@]3(CO)[C@]1(C)[C@]21CO1 [Fusarenon X],collision cross section (N2),[2]; [M+H3C2O2]-,195 Å²
N[C@H]1[C@@H](OP(=O)(O)O)O[C@H](CO)[C@@H](O)[C@@H]1O [Glucosamine 1-phosphate],collision cross section (N2),[5]; [M+H]+,153 Å²
same,collision cross section (N2),[4]; [M+Na]+,158.5 Å²
N[C@H]1C(O)O[C@H](CO)[C@@H](O)[C@@H]1O (stereo not given in full) [Glucosamine],collision cross section (N2),[5]; [M+H]+,135 Å²
same,collision cross section (N2),[4]; [M+H-H2O]+,132.9 Å²
C[C@]12CCC(=O)C=C1CC[C@@H]1[C@@H]2[C@@H](O)C[C@@]2(C)[C@H]1CC[C@]2(O)C(=O)CO [Hydrocortisone],collision cross section (N2),[1]; [M+H]+,189.27 Å²
same,collision cross section (N2),[1]; [M+Na]+,213.72 Å²
same,collision cross section (N2),[4]; [M-H2O-H]-,182.99 Å²
CCC(C)[C@H](N)C(=O)N[C@@H](Cc1ccccc1)C(=O)N[C@H](C(=O)N[C@@H](CCC(N)=O)C(=O)N[C@@H](CCCCN)C(=O)O)C(C)C (stereo not given in full) [IFVQK],collision cross section (N2),[1]; [M+2H]2+,285.5 Å²
same,collision cross section (N2),[1]; [M+H]+,248.88 Å²
N[C@@H](CC(=O)O)C(=O)O [L-Aspartic acid],collision cross section (N2),[1]; [M-H]-,120.39 Å²
NCCCC[C@H](N)C(=O)O [L-Lysine],collision cross section (N2),[3]; [M+H]+,131.8 Å²
same,collision cross section (N2),[1]; [M+H]+,131.62 Å²
same,collision cross section (N2),[4]; [M+H]+,130.7 Å²
CCCCCCCCCCCC(=O)O [Lauric acid],collision cross section (N2),[1]; [M-H]-,154.82 Å²
CCC(C)[C@H](NC(=O)CNC(=O)[C@H](C)NC(=O)[C@H](Cc1ccccc1)NC(=O)[C@@H](NC(=O)[C@@H](N)CCSC)C(C)CC)C(=O)N[C@@H](CCCCN)C(=O)O (stereo not given in full) [MIFAGIK],collision cross section (N2),[1]; [M+2H]2+,305.66 Å²
same,collision cross section (N2),[1]; [M+H]+,275.34 Å²
CC(=O)OC[C@]12C[C@H](O)C(C)=C[C@H]1O[C@@H]1[C@H](O)[C@@H](OC(C)=O)[C@@]2(C)[C@]12CO2 [Neosolaniol],collision cross section (N2),[2]; [M+NH4]+,198 Å²
CCC(C)C(NC(=O)C(Cc1ccc(O)cc1)NC(=O)C1CCCN1C(=O)C(CCCN=C(N)N)NC(=O)C(CCCN=C(N)N)NC(=O)C1CCCN1C(=O)C(CCCCN)NC(=O)C(CC(N)=O)NC(=O)C(CCC(=O)O)NC(=O)C(Cc1ccc(O)cc1)NC(=O)C(CC(C)C)NC(=O)C1CCC(=O)N1)C(=O)NC(CC(C)C)C(=O)O (stereo not given) [Neurotensin],collision cross section (N2),[1]; [M+2H]2+,434.32 Å²
same,collision cross section (N2),[1]; [M+3H]3+,525.02 Å²
CCCCCCCCCCCCCCCC(=O)O [Palmitic acid],collision cross section (N2),[1]; [M-H]-,169.12 Å²
same,collision cross section (N2),[4]; [M+Na]+,195 Å²
same,collision cross section (N2),[4]; [M-H]-,167.52 Å²
C=C(C)[C@H]1O[C@H]2CC[C@@]3(C)[C@@](O)(CC[C@H]4[C@@H]5OC(C)(C)[C@H]6C[C@@H]7C(=C)Cc8c(Cl)cc9[nH]c(c5c9c8[C@@]76O)[C@@]43C)[C@]23O[C@@H]3[C@H]1O [Penitrem A],collision cross section (N2),[2]; [M+H]+,253 Å²
Cc1ncc(CO)c(C(=O)O)c1O [Pyridoxic acid],collision cross section (N2),[5]; [M+H]+,130 Å²
O=C[C@H](O)[C@H](O)[C@H](O)COP(=O)(O)O [Ribose 5-monophosphate],collision cross section (N2),[5]; [M+Na]+,146 Å²
CN=C(NC)NCCC[C@H](N)C(=O)O [SDMA],collision cross section (N2),[5]; [M+H]+,142 Å²
CC(=O)OC[C@]12C[C@H](OC(=O)CC(C)C)C(C)=C[C@H]1O[C@@H]1[C@H](O)[C@@H](OC(C)=O)[C@@]2(C)[C@]12CO2 [T-2 toxin],collision cross section (N2),[2]; [M+NH4]+,214 Å²
NCCS(=O)(=O)O [Taurine],collision cross section (N2),[5]; [M+H]+,124 Å²
same,collision cross section (N2),[4]; [M+H-H2O]+,135.4 Å²
CC(C)C[C@@H]1NC(=O)[C@H](C)N(C)C(=O)CNC(=O)/C(=C/c2ccccc2)N(C)C1=O [Tentoxin],collision cross section (N2),[2]; [M+H]+,202 Å²
CC[C@H](C)[C@@H]1NC(=O)C(C(C)=O)=C1O [Tenuazonic acid],collision cross section (N2),[2]; [M+H]+,135 Å²
Cc1c[nH]c(=O)[nH]c1=O [Thymine],collision cross section (N2),[3]; [M+H]+,126.14 Å²
same,collision cross section (N2),[5]; [M+H]+,115 Å²
same,collision cross section (N2),[4]; [M+H]+,121.9 Å²
same,collision cross section (N2),[4]; [M-H]-,117.39 Å²
N[C@@H](Cc1c[nH]c2ccccc12)C(=O)O [Tryptophan],collision cross section (N2),[5]; [M+H]+,145 Å²
O=c1ccn([C@@H]2O[C@H](COP(=O)(O)O)[C@@H](O)[C@H]2O)c(=O)[nH]1 [UMP],collision cross section (N2),[5]; [M+Na]+,168 Å²
O=c1[nH]c(=O)c2ncn([C@@H]3O[C@H](CO)[C@@H](O)[C@H]3O)c2[nH]1 [Xanthosine],collision cross section (N2),[3]; [M+H]+,166.49 Å²
same,collision cross section (N2),[3]; [M+Na]+,177.45 Å²
same,collision cross section (N2),[5]; [M+H]+,158 Å²
same,collision cross section (N2),[4]; [M+Na]+,172.8 Å²
C[C@H]1CCCC(=O)CCC/C=C/c2cc(O)cc(O)c2C(=O)O1 [Zearalenone],collision cross section (N2),[2]; [M-H]-,170 Å²
Nc1ncnc2c1ncn2[C@@H]1O[C@@H]2COP(=O)(O)O[C@H]2[C@H]1O [cAMP],collision cross section (N2),[5]; [M+H]+,172 Å²
N[C@@H](CCC(=O)N[C@@H](CS)C(=O)NCC(=O)O)C(=O)O [glutathione],collision cross section (N2),[5]; [M+H]+,165 Å²
OC[C@H]1O[C@@H](O[C@H]2[C@H](O)[C@@H](O)[C@H](O)O[C@@H]2CO)[C@H](O)[C@@H](O)[C@H]1O [lactose],collision cross section (N2),[5]; [M+Na]+,173 Å²
OC[C@H]1O[C@H](OC[C@H]2O[C@H](O[C@]3(CO)O[C@H](CO)[C@@H](O)[C@@H]3O)[C@H](O)[C@@H](O)[C@@H]2O)[C@H](O)[C@@H](O)[C@H]1O [raffinose],collision cross section (N2),[5]; [M+Na]+,210 Å²
OC[C@H]1O[C@@](CO)(O[C@H]2O[C@H](CO)[C@@H](O)[C@H](O)[C@H]2O)[C@@H](O)[C@@H]1O [sucrose],collision cross section (N2),[5]; [M+Na]+,170 Å²
OC[C@H]1O[C@H](O[C@H]2O[C@H](CO)[C@@H](O)[C@H](O)[C@H]2O)[C@H](O)[C@@H](O)[C@@H]1O [trehalose],collision cross section (N2),[5]; [M+Na]+,173 Å²
